Measurements as given in US11331299B2, “Medicinal use of serrulatane diterpenes” (The University of Sydney, priority 2016, dated 2022).
Where two headings read alike, the source gives them in different places.

Experiments:
ASH1L (h) bromodomain = target: T1, ASH1L (h) bromodomain (Homo sapiens, UniProt Q9NR48); assay: Epigenetic binding assay, Bromodomain; conditions: for inhibition at 10 µM: read-out: % Inhibition of Control Specific Binding
T1 construct: ASH1L (h) bromodomain

BAZ2A (h) bromodomain = target: T2, BAZ2A (h) bromodomain (Homo sapiens, UniProt Q9UIF9); assay: Epigenetic binding assay, Bromodomain; conditions: read-out: % Inhibition of Control Specific Binding
T2 construct: Bromodomain
T2 sequence (Q9UIF9 1793-1897 limits assumed): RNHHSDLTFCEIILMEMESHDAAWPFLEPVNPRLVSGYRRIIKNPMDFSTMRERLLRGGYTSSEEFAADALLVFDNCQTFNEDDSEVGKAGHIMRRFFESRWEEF

SP140 (h) bromodomain = target: T3, SP140 (h) bromodomain (Homo sapiens, UniProt Q13342); assay: Epigenetic binding assay, Bromodomain; set-up: inhibition of binding, 1st / inhibition of binding, 2nd / inhibition of binding, Mean: unit: %; conditions: for inhibition at 10 µM: read-out: % Inhibition of Control Specific Binding
T3 construct: SP140 (h) bromodomain

CBX5 (h) chromodomain = target: T4, CBX5 (h) chromodomain (Homo sapiens, UniProt P45973); assay: Epigenetic binding assay, Chromodomain; conditions: read-out: % Inhibition of Control Specific Binding
T4 construct: Recognition and specificity determinants of the human cbx chromodomains; Eurofins CEREP (France), contract laboratory

JMJD2E (h) = target: T5, JMJD2E (h) (Homo sapiens, UniProt B2RXH2); assay: Epigenetic enzyme assay, Demethylases (KDMs); format: biochemical; conditions: for inhibition at 10 µM: read-out: % Inhibition of Control Values
T5 sequence (B2RXH2 1-506): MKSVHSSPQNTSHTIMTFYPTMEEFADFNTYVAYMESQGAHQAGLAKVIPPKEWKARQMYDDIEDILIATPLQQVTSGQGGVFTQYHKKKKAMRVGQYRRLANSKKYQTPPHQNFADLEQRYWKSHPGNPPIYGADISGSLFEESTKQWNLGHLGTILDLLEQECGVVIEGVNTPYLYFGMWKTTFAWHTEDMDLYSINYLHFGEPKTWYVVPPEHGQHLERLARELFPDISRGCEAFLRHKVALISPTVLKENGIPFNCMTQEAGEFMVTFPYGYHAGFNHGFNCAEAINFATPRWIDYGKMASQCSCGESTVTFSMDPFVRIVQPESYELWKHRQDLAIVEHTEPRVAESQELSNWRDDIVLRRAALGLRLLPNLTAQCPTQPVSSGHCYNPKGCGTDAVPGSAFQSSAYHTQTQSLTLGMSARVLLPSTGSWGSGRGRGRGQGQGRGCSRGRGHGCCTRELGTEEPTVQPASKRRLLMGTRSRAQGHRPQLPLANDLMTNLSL

HAT1(h) = target: T6, HAT1(h) (Homo sapiens, UniProt O14929); assay: Epigenetic enzyme assay, Histone acetyltransferases (HATs); format: biochemical; conditions: read-out: % Inhibition of Control Values
T6 sequence (O14929 1-419): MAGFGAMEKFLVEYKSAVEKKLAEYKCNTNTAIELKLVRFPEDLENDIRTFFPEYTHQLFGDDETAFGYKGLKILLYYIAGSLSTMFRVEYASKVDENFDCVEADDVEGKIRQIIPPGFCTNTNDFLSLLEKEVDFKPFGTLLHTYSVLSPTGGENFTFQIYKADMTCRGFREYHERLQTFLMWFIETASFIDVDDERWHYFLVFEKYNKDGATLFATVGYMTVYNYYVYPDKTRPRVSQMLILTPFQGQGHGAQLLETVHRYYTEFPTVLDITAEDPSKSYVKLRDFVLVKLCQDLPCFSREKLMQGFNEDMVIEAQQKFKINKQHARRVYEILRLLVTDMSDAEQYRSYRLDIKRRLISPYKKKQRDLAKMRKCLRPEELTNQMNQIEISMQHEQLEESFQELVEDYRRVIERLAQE

[1] = target: T7, sirtuin 3 (h) (inhibitor effect) (Homo sapiens, UniProt Q9NTG7); assay: Epigenetic enzyme assay, Sirtuins; format: biochemical; conditions: read-out: % Inhibition of Control Values
T7 sequence (Q9NTG7 1-399): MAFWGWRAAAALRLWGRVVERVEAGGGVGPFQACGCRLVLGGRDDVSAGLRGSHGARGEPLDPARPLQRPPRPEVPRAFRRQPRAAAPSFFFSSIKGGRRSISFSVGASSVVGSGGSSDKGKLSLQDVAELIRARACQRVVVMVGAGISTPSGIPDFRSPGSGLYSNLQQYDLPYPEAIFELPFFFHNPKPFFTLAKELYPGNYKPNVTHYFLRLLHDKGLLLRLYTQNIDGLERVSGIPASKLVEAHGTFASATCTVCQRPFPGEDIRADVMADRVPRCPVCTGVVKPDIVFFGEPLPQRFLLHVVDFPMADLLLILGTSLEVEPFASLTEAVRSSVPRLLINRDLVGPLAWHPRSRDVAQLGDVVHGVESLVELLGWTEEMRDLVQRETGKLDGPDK

Sirtuin 6 (h) = Sirtuin 6 (h) (Homo sapiens, UniProt Q8N6T7); assay: Epigenetic enzyme assay, Sirtuins; format: biochemical; conditions: 10 μM; read-out: % Inhibition of Control Values
NSD1 (h) = NSD1 (h) (Homo sapiens, UniProt Q96L73); assay: Epigenetic enzyme assay, Methyltransferases (MTs); format: biochemical; conditions: for inhibition at 10 µM: read-out: % Inhibition of Control Values
Histamine H3 = target: T8, Histamine H3 (Homo sapiens, UniProt Q9Y5N1); assay: Histamine H3 radio ligand binding
T8 construct: expressed in transfected cells; host or cells: Chem-1 cells
Experimental: (§1) The in vitro pharmacological studies were conducted by Eurofins PanLab (Taiwan) using the parameters shown in Table 13 with respect to appropriate literature references.

Thioredoxin Reductase = target: T9, Thioredoxin Reductase (Escherichia coli, UniProt P0A9P4); assay: Thioredoxin Reductase; format: biochemical, E. coli
T9 construct: host or cells: E. coli
Experimental: as §1

NF-κB = assay: Transcription Response, NF-κB; format: cell-based, Human
Experimental: as §1

CYP2C9 = target: T10, CYP2C9 (Homo sapiens, UniProt P11712); assay: Cytochrome P450 Inhibition (CYP panel); format: in vitro ADME; conditions: human liver microsomes, probe diclofenac; for inhibition at 10 µM: read-out: % Inhibition of Control Values
T10 construct: Human liver microsomes; from tissue; host or cells: human liver microsomes

[2] = target: CYP2D6 (Dextromethorphan Substrate) (Homo sapiens, UniProt P10635); assay: Cytochrome P450 Inhibition (CYP panel); conditions: CYP2D6 (dextromethorphan sub.); Human liver microsomes; 1 μM
[3] = Table 9, inhibition/concentration-response curve, read-out: IC50
[4] = assay year 2014, read-out: % Control Response
[5] = assay year 2015, read-out: % Control Response

T4 sequence (P45973 20-78 limits assumed): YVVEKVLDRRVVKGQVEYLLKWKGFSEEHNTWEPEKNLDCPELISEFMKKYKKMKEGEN
Chain of CYP2D6 (Dextromethorphan Substrate) (P10635 whole entry): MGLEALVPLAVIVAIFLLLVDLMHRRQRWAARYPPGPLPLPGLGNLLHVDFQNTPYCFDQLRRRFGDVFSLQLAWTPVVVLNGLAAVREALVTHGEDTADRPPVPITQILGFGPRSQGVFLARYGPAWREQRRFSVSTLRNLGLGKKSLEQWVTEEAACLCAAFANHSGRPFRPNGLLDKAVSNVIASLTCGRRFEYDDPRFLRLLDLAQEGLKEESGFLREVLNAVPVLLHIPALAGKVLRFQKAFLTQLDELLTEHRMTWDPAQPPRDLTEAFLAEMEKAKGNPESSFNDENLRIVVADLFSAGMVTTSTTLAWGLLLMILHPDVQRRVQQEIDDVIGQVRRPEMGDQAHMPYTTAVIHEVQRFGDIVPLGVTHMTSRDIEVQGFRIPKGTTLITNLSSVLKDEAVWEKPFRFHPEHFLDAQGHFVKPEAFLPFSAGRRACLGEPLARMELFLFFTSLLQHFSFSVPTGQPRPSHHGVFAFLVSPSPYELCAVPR
T10 sequence (P11712 whole entry): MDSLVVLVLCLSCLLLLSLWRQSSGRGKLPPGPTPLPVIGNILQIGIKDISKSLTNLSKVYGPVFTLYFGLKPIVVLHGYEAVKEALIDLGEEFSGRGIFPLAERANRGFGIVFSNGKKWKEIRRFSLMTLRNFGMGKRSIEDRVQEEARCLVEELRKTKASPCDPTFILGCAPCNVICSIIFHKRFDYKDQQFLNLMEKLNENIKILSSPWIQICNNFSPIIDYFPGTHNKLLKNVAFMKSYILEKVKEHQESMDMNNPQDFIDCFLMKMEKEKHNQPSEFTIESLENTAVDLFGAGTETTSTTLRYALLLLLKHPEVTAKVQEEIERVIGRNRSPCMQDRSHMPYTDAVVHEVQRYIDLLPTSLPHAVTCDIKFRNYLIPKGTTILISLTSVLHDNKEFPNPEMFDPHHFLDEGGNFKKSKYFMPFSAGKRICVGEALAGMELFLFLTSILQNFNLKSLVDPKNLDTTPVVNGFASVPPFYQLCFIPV
T9 sequence (P0A9P4 2-321): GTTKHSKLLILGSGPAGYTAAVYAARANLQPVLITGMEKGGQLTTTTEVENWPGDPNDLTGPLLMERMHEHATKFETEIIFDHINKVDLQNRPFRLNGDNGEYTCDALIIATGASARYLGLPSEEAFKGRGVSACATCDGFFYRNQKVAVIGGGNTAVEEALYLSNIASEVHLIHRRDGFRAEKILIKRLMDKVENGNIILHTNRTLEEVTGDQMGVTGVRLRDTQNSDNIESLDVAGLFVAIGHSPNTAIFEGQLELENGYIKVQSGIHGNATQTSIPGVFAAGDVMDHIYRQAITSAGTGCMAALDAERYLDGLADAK
T3 sequence (Q13342 754-857 limits assumed): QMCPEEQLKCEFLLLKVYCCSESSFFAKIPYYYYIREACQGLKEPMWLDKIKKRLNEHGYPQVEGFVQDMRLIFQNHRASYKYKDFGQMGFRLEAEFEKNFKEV
T8 sequence (Q9Y5N1 whole entry): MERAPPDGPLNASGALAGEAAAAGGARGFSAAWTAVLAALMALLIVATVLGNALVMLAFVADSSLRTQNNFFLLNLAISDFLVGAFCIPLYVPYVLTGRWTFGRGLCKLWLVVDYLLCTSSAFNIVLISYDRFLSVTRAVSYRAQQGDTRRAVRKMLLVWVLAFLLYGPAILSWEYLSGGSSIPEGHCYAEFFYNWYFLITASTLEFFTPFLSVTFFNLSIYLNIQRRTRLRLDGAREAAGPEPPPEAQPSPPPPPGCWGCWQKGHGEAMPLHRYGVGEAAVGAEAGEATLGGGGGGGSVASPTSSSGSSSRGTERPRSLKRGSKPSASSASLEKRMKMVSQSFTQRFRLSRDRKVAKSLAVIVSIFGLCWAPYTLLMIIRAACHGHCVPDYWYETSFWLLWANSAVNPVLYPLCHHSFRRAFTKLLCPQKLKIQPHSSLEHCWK
Chain of NSD1 (h) (Q96L73 whole entry): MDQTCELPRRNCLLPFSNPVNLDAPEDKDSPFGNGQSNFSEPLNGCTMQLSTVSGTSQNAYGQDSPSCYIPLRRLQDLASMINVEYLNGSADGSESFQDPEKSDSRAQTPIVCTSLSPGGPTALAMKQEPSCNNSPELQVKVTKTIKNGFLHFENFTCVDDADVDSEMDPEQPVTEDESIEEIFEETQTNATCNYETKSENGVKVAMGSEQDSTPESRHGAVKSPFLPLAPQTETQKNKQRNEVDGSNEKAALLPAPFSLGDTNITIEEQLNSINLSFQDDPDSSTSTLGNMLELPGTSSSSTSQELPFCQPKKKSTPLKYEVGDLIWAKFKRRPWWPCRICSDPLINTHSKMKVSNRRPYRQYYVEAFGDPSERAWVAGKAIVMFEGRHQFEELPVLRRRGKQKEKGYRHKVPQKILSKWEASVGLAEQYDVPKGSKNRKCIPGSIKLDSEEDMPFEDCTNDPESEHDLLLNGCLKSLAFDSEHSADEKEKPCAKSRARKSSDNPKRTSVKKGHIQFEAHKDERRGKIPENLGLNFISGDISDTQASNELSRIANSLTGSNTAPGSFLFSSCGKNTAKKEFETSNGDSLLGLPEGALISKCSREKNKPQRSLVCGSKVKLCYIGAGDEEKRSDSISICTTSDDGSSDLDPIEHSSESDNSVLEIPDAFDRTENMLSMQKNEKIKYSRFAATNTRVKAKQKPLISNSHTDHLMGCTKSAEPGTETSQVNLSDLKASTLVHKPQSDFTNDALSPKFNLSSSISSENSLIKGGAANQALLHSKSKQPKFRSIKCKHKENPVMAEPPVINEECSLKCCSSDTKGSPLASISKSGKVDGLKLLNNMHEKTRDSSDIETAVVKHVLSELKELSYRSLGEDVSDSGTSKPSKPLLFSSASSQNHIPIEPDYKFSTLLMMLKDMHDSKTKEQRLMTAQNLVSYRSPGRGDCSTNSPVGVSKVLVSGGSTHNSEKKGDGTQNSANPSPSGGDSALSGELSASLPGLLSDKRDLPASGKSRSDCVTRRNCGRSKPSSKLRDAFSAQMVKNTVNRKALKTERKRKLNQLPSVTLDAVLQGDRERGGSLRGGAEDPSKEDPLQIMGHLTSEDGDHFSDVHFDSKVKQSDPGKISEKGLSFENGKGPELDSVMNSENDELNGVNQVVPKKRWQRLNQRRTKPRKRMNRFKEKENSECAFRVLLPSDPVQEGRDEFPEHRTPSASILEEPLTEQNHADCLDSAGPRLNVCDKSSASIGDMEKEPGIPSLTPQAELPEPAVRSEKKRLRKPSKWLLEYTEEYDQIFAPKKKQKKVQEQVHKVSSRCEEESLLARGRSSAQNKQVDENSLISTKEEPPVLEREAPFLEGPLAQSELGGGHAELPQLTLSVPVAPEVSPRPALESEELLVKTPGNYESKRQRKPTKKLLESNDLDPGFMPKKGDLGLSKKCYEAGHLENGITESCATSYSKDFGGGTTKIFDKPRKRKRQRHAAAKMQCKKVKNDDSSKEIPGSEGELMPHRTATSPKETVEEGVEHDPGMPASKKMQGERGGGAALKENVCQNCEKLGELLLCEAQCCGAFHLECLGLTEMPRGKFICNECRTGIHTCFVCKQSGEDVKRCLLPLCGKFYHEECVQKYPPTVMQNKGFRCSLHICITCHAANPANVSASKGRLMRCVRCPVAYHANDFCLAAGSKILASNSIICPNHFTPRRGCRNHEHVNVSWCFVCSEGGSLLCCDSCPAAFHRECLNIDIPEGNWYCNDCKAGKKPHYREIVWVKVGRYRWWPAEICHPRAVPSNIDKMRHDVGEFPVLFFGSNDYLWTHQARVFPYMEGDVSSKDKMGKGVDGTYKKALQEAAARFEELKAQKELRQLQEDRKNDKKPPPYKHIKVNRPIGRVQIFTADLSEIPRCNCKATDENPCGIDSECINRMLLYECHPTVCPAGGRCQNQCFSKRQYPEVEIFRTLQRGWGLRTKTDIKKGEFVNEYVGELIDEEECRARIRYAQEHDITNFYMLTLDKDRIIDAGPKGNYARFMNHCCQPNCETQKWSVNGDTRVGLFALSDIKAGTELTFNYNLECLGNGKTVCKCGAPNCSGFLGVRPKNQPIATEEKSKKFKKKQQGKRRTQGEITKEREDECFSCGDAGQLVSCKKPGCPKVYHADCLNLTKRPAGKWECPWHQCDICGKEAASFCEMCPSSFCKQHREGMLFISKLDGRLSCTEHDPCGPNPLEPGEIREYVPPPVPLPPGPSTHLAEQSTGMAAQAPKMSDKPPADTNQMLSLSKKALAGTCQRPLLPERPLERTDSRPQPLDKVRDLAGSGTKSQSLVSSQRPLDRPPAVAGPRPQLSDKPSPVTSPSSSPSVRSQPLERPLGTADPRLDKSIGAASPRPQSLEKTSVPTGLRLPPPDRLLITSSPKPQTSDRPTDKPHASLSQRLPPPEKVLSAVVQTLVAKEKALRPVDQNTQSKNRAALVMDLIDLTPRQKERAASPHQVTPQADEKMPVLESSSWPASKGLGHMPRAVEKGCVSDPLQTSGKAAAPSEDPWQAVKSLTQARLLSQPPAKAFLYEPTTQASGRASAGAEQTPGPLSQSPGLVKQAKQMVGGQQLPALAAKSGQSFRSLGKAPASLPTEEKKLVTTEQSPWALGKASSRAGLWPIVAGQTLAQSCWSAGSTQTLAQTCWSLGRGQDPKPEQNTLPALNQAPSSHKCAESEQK
Chain of Sirtuin 6 (h) (Q8N6T7 whole entry): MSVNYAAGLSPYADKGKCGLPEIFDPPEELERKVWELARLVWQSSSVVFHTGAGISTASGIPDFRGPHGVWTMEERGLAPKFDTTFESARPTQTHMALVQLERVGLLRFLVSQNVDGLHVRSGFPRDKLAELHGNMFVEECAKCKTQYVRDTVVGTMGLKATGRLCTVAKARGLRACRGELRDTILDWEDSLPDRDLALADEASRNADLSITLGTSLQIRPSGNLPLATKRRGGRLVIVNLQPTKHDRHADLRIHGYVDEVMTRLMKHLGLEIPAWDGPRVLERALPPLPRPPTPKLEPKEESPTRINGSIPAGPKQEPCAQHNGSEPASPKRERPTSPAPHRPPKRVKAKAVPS

## CC(C)=CCC[C@H](CO)[C@@H]1CC[C@@H](C)c2c1cc(C)c(O)c2O [Compound 1, 7,8,18-trihydroxyserrulat-14-ene]
ASH1L (h) bromodomain; 10 μM
  % Inhibition of Control Specific Binding: significant inhibitory activity
  inhibition at 10 µM: 95%
ASH1L (h) bromodomain; 3.0E−05M
  inhibition of binding, 1st: 100.6
  inhibition of binding, 2nd: 99.6
  inhibition of binding, Mean: 100.1
ASH1L (h) bromodomain; 3.0E−06M
  inhibition of binding, 1st: 17.0
  inhibition of binding, 2nd: 28.0
  inhibition of binding, Mean: 22.5
ASH1L (h) bromodomain; 3.0E−07M
  inhibition of binding, 1st: −0.2
  inhibition of binding, 2nd: −2.9
  inhibition of binding, Mean: −1.6
ASH1L (h) bromodomain; 3.0E−08M
  inhibition of binding, 1st: −12.3
  inhibition of binding, 2nd: 1.8
  inhibition of binding, Mean: −5.2
ASH1L (h) bromodomain; 3.0E−09M
  inhibition of binding, 1st: −2.6
  inhibition of binding, 2nd: −8.2
  inhibition of binding, Mean: −5.4
ASH1L (h) bromodomain; [3]
  IC50: 4.2 µM
BAZ2A (h) bromodomain
  inhibition at 10 µM: 56%
SP140 (h) bromodomain; 10 μM
  % Inhibition of Control Specific Binding: significant inhibitory activity
  inhibition at 10 µM: 84%
SP140 (h) bromodomain; 3.0E−05M
  inhibition of binding, 1st: 102.3
  inhibition of binding, 2nd: 102.3
  inhibition of binding, Mean: 102.3
SP140 (h) bromodomain; 3.0E−06M
  inhibition of binding, 1st: 8.4
  inhibition of binding, 2nd: 11.3
  inhibition of binding, Mean: 9.9
SP140 (h) bromodomain; 3.0E−07M
  inhibition of binding, 1st: −14.1
  inhibition of binding, 2nd: −11.0
  inhibition of binding, Mean: −12.6
SP140 (h) bromodomain; 3.0E−08M
  inhibition of binding, 1st: −9.7
  inhibition of binding, 2nd: −14.6
  inhibition of binding, Mean: −12.1
SP140 (h) bromodomain; 3.0E−09M
  inhibition of binding, 1st: −6.0
  inhibition of binding, 2nd: −8.6
  inhibition of binding, Mean: −7.3
SP140 (h) bromodomain; [3]
  IC50: 3.8 µM
CBX5 (h) chromodomain
  inhibition at 10 µM: 25%
JMJD2E (h); 10 μM
  % Inhibition of Control Values: significant inhibitory activity
  inhibition at 10 µM: 65%
JMJD2E (h); Table 11, inhibition/concentration-response curve
  IC50: 4.7 µM
HAT1(h)
  inhibition at 10 µM: -3%
[1]
  inhibition at 10 µM: -14%
Sirtuin 6 (h)
  inhibition at 10 µM: 2%
NSD1 (h)
  inhibition at 10 µM: 69%
NSD1 (h); Table 11, inhibition/concentration-response curve, read-out: IC50
  IC50: 4.9 µM
Histamine H3; [4]
  remaining activity at 10 µM: -10%
Histamine H3; [5]
  remaining activity at 10 µM: 12%
Thioredoxin Reductase; 10 μM, assay year 2014
  % Control Response: inhibited the activity
Thioredoxin Reductase; [4]
  remaining activity at 10 µM: 71%
Thioredoxin Reductase; [5]
  remaining activity at 10 µM: 35%
NF-κB; Antagonist, Conc 0.001 μM
  Resp Av %: −25%
NF-κB; Antagonist, Conc 0.01 μM
  Resp Av %: −5%
NF-κB; Antagonist, Conc 0.1 μM
  Resp Av %: 0%
NF-κB; Antagonist, Conc 1 μM
  Resp Av %: 17%
NF-κB; Antagonist, Conc 10 μM
  Resp Av %: 103%
NF-κB; Homo sapiens, Antagonist
  IC50: 1.4 µM
NF-κB; Homo sapiens, transcription response NF-κB
  IC50: 1.36 µM
NF-κB; transcription response NF-κB
  IC50: 0.69 µM
CYP2C9
  inhibition at 1 µM: 5%
  inhibition at 10 µM: 77%
[2]
  % Inhibition of Control Values: 13%

## CC(C)=CCC[C@@H]1C(O)Oc2c(C)cc(O)c3c2[C@H]1CC[C@H]3C (some centres unmarked) [Compound 2, 5,18-epoxyserrulat-14-en-8,18-diol]
ASH1L (h) bromodomain; 10 μM
  inhibition at 10 µM: 59%
BAZ2A (h) bromodomain
  inhibition at 10 µM: 17%
SP140 (h) bromodomain; 10 μM
  inhibition at 10 µM: 43%
CBX5 (h) chromodomain
  inhibition at 10 µM: 24%
JMJD2E (h); 10 μM
  inhibition at 10 µM: 10%
HAT1(h)
  inhibition at 10 µM: 3%
[1]
  inhibition at 10 µM: -8%
Sirtuin 6 (h)
  inhibition at 10 µM: 6%
NSD1 (h)
  inhibition at 10 µM: 29%
Histamine H3; [4]
  remaining activity at 10 µM: -5%
Histamine H3; [5]
  remaining activity at 10 µM: 24%
Thioredoxin Reductase; [4]
  remaining activity at 10 µM: 6%
Thioredoxin Reductase; [5]
  remaining activity at 10 µM: 12%
NF-κB; Antagonist, Conc 0.001 μM
  Resp Av %: −7%
NF-κB; Antagonist, Conc 0.01 μM
  Resp Av %: −7%
NF-κB; Antagonist, Conc 0.1 μM
  Resp Av %: −3%
NF-κB; Antagonist, Conc 1 μM
  Resp Av %: 10%
NF-κB; Antagonist, Conc 10 μM
  Resp Av %: 34%
NF-κB; Homo sapiens, Antagonist
  IC50: > 10 µM
CYP2C9
  inhibition at 1 µM: 20%
  inhibition at 10 µM: 72%
[2]
  % Inhibition of Control Values: 18%

## CC(C)=CCC[C@@H]1COc2c(C)cc(O)c3c2[C@H]1CC[C@H]3C [Compound 3, 5,18-epoxy-8-hydroxyserrulat-14-ene]
ASH1L (h) bromodomain; 10 μM
  inhibition at 10 µM: 42%
BAZ2A (h) bromodomain
  inhibition at 10 µM: 16%
SP140 (h) bromodomain; 10 μM
  inhibition at 10 µM: 1%
CBX5 (h) chromodomain
  inhibition at 10 µM: 25%
JMJD2E (h); 10 μM
  inhibition at 10 µM: 6%
HAT1(h)
  inhibition at 10 µM: -3%
[1]
  inhibition at 10 µM: -3%
Sirtuin 6 (h)
  inhibition at 10 µM: -4%
NSD1 (h)
  inhibition at 10 µM: -10%
Histamine H3; [5]
  remaining activity at 10 µM: 1%
Thioredoxin Reductase; [5]
  remaining activity at 10 µM: 9%
NF-κB; Antagonist, Conc 0.001 μM
  Resp Av %: −16%
NF-κB; Antagonist, Conc 0.01 μM
  Resp Av %: −11%
NF-κB; Antagonist, Conc 0.1 μM
  Resp Av %: −7%
NF-κB; Antagonist, Conc 1 μM
  Resp Av %: 1%
NF-κB; Antagonist, Conc 10 μM
  Resp Av %: −19%
NF-κB; Homo sapiens, Antagonist
  IC50: > 10 µM

## CC(C)=CCC[C@H](C)[C@@H]1CC[C@@H](C)c2c1cc(C)c(O)c2O [Compound 4, 7,8-dihydroxyserrulat-14-ene]
CYP2C9
  inhibition at 1 µM: 31%
  inhibition at 10 µM: 91%
[2]
  % Inhibition of Control Values: 21%
